Source: US20080280920A1, “Plasminogen Activator Inhibitor-1 Inhibitors” (priority 2005, published 2008)

Key:
Type in all cases: cell-based, human
[1] = tested on: 786-0; assay: NCI anticancer screen, 786-0; conditions: 786-0, Renal, 48 h
[2] = tested on: HCT-116; assay: NCI anticancer screen, HCT-116; conditions: HCT-116, Colon, 48 h
[3] = tested on: SF-539; assay: NCI anticancer screen, SF-539; conditions: SF-539, CNS, 48 h
[4] = tested on: PC-3; assay: NCI anticancer screen, PC-3; conditions: PC-3, Prostate, 48 h
[5] = tested on: SNB-75; assay: NCI anticancer screen, SNB-75; conditions: SNB-75, CNS, 48 h
[6] = tested on: MOLT-4; assay: NCI anticancer screen, MOLT-4; conditions: MOLT-4, Leukemia, 48 h
[7] = tested on: BT-549; assay: NCI anticancer screen, BT-549; conditions: BT-549, Breast, 48 h
[8] = tested on: NCI-H226; assay: NCI anticancer screen, NCI-H226; conditions: NCI-H226, Non-Small Cell Lung, 48 h
[9] = tested on: MDA-MB-435; assay: NCI anticancer screen, MDA-MB-435; conditions: MDA-MB-435, Breast, 48 h
[10] = tested on: HT29; assay: NCI anticancer screen, HT29; conditions: HT29, Colon, 48 h
[11] = tested on: NCI/ADR-RES; assay: NCI anticancer screen, NCI/ADR-RES; conditions: Breast, 48 h
[12] = tested on: UACC-62; assay: NCI anticancer screen, UACC-62; conditions: UACC-62, Melanoma, 48 h
[13] = tested on: SN12C; assay: NCI anticancer screen, SN12C; conditions: 48 h, Renal
[14] = tested on: T-47D; assay: NCI anticancer screen, T-47D; conditions: Breast, 48 h
[15] = tested on: HCC-2998; assay: NCI anticancer screen, HCC-2998; conditions: HCC-2998, Colon, 48 h
[16] = tested on: A498; assay: NCI anticancer screen, A498; conditions: A498, Renal, 48 h
[17] = tested on: HCT-15; assay: NCI anticancer screen, HCT-15; conditions: HCT-15, Colon, 48 h
[18] = tested on: RXF 393; assay: NCI anticancer screen, RXF 393; conditions: RXF 393, Renal, 48 h
[19] = tested on: HS 578T; assay: NCI anticancer screen, HS 578T; conditions: Breast, 48 h
[20] = tested on: OVCAR-8; assay: NCI anticancer screen, OVCAR-8; conditions: OVCAR-8, Ovarian, 48 h
[21] = tested on: MALME-3M; assay: NCI anticancer screen, MALME-3M; conditions: Melanoma, 48 h
[22] = tested on: COLO 205; assay: NCI anticancer screen, COLO 205; conditions: COLO 205, Colon, 48 h
[23] = tested on: CAKI-1; assay: NCI anticancer screen, CAKI-1; conditions: CAKI-1, Renal, 48 h
[24] = tested on: K-562; assay: NCI anticancer screen, K-562; conditions: K-562, Leukemia, 48 h
[25] = tested on: OVCAR-4; assay: NCI anticancer screen, OVCAR-4; conditions: OVCAR-4, Ovarian, 48 h
[26] = tested on: SK-OV-3; assay: NCI anticancer screen, SK-OV-3; conditions: SK-OV-3, Ovarian, 48 h
[27] = tested on: A549/ATCC; assay: NCI anticancer screen, A549/ATCC; conditions: Non-Small Cell Lung, 48 h
[28] = tested on: SK-MEL-28; assay: NCI anticancer screen, SK-MEL-28; conditions: SK-MEL-28, Melanoma, 48 h
[29] = tested on: HL-60(TB); assay: NCI anticancer screen, HL-60(TB); conditions: Leukemia, 48 h
[30] = tested on: OVCAR-5; assay: NCI anticancer screen, OVCAR-5; conditions: OVCAR-5, Ovarian, 48 h
[31] = tested on: SK-MEL-5; assay: NCI anticancer screen, SK-MEL-5; conditions: SK-MEL-5, Melanoma, 48 h
[32] = tested on: SF-268; assay: NCI anticancer screen, SF-268; conditions: SF-268, CNS, 48 h
[33] = tested on: M14; assay: NCI anticancer screen, M14; conditions: M14, Melanoma, 48 h
[34] = tested on: MCF7; assay: NCI anticancer screen, MCF7; conditions: MCF7, Breast, 48 h
[35] = Homo sapiens, read-out: LC50 (the source's name)

For CCOC(=O)c1ccc(CNCc2cc(CN3CCN(c4ccccn4)CC3)c(O)c(OC)c2)cc1 [Compound Q012135T], the TGI [1] was 31.0 µM, the GI50 ([1]; Homo sapiens) was 16.2 µM and the CC50 [1, 35] was 59.2 µM. It also gave a TGI [2] greater than 100 µM, a GI50 ([2]; Homo sapiens) of 18.6 µM and an LC50 (50% lethal concentration) ([2]; Homo sapiens) greater than 100 µM. The GI50 ([3]; Homo sapiens) was 16 µM, the CC50 [3, 35] was 57.2 µM and the TGI [3] was 30.2 µM. The GI50 ([4]; Homo sapiens) was 17.9 µM, the CC50 [4, 35] was greater than 100 µM and the TGI [4] was 45.4 µM. For the same compound, the GI50 ([5]; Homo sapiens) was 17.6 µM, the LC50 (concentration killing 50% of cells) ([5]; Homo sapiens) was 59.2 µM and the TGI [5] was 32.2 µM. The GI50 ([6]; Homo sapiens) was 10.1 µM, the CC50 [6, 35] was 10.1 µM and the TGI [6] was 31.3 µM. It also gave a TGI [7] of 30.0 µM, a GI50 ([7]; Homo sapiens) of 15.5 µM and a CC50 [7, 35] of 58 µM. For the same compound, the GI50 ([8]; Homo sapiens) was 19.8 µM, the LC50 (concentration giving 50% net cell kill) ([8]; Homo sapiens) was 91.5 µM and the TGI [8] was 42.6 µM. For the same compound, the GI50 ([9]; Homo sapiens) was 16.9 µM, the CC50 [9, 35] was 87.1 µM and the TGI [9] was 38.4 µM. The TGI [10] was 31.8 µM, the GI50 ([10]; Homo sapiens, HT-29) was 17.1 µM and the CC50 ([10]; Homo sapiens, HT-29, read-out: LC50 (the source's name)) was 59 µM. It also gave a TGI [11] of 96.9 µM, a GI50 ([11]; Homo sapiens) of 27.6 µM and a CC50 [11, 35] greater than 100 µM. The GI50 ([12]; Homo sapiens) was 20.1 µM, the CC50 [12, 35] was 72.4 µM and the TGI [12] was 38.2 µM. The GI50 ([13]; Homo sapiens) was 21.7 µM, the CC50 [13, 35] was greater than 100 µM and the TGI [13] was 55.7 µM. The TGI [14] was 49.2 µM, the GI50 ([14]; Homo sapiens, T47D) was 14.7 µM and the CC50 ([14]; Homo sapiens, T47D, read-out: LC50 (the source's name)) was greater than 100 µM. For the same compound, the TGI [15] was 31.6 µM, the GI50 ([15]; Homo sapiens) was 15.3 µM and the LC50 ([15]; Homo sapiens) was 65.1 µM. The TGI [16] was 51.4 µM, the GI50 ([16]; Homo sapiens) was 25.8 µM and the CC50 [16, 35] was greater than 100 µM. For the same compound, the TGI [17] was greater than 100 µM, the GI50 ([17]; Homo sapiens) was 26.9 µM and the CC50 [17, 35] was greater than 100 µM. It also gave a GI50 ([18]; Homo sapiens) of 18.8 µM, a CC50 [18, 35] of 84.5 µM and a TGI [18] of 39.9 µM. For the same compound, the TGI [19] was 41.7 µM, the GI50 ([19]; Homo sapiens) was 19.1 µM and the CC50 [19, 35] was 90.9 µM. The GI50 ([20]; Homo sapiens) was 22.1 µM, the CC50 [20, 35] was greater than 100 µM and the TGI [20] was 49.1 µM. It also gave a GI50 ([21]; Homo sapiens) of 20.1 µM, a CC50 [21, 35] of 74.1 µM and a TGI [21] of 38.6 µM. For the same compound, the TGI [22] was 36.3 µM, the GI50 ([22]; Homo sapiens) was 17 µM and the CC50 [22, 35] was 77.6 µM. For the same compound, the TGI [23] was 44.0 µM, the GI50 ([23]; Homo sapiens) was 17.2 µM and the CC50 [23, 35] was greater than 100 µM. It also gave a GI50 ([24]; Homo sapiens, K562) of 3.4 µM, a CC50 ([24]; Homo sapiens, K562, read-out: LC50 (the source's name)) of 3.4 µM and a TGI [24] of 14.1 µM. It also gave a GI50 ([25]; Homo sapiens) of 18.6 µM, a CC50 [25, 35] of 98 µM and a TGI [25] of 42.7 µM. For the same compound, the GI50 ([26]; Homo sapiens) was 24.9 µM, the CC50 [26, 35] was greater than 100 µM and the TGI [26] was 56.7 µM. For the same compound, the GI50 ([27]; Homo sapiens) was 36.9 µM, the LC50 ([27]; Homo sapiens) was greater than 100 µM and the TGI [27] was greater than 100 µM. The GI50 ([28]; Homo sapiens) was 15.1 µM, the CC50 [28, 35] was 57.4 µM and the TGI [28] was 29.5 µM. It also gave a GI50 ([29]; Homo sapiens) of 13.1 µM, a CC50 [29, 35] of 13.1 µM and a TGI [29] of 33.7 µM. It also gave a GI50 ([30]; Homo sapiens) of 23.4 µM, a CC50 [30, 35] of 91.7 µM and a TGI [30] of 46.3 µM. The GI50 ([31]; Homo sapiens) was 12.9 µM, the CC50 [31, 35] was 51.8 µM and the TGI [31] was 25.8 µM. It also gave a GI50 ([32]; Homo sapiens) of 19.1 µM, an LC50 ([32]; Homo sapiens) of 71.1 µM and a TGI [32] of 36.9 µM. The GI50 ([33]; Homo sapiens) was 17.2 µM, the CC50 [33, 35] was 64.8 µM and the TGI [33] was 33.4 µM. The GI50 ([34]; Homo sapiens) was 16.3 µM, the CC50 [34, 35] was 69.9 µM and the TGI [34] was 33.7 µM.
